Results from US20080194585A1, “Fungicidal Pyrazine Derivatives” (priority 2005, published 2008).
Marks after values point to notes of the source that are not given here.

How the values were obtained:
[1] = system: Erysiphe graminis f. sp. tritici; test: Test L: wheat powdery mildew, preventive spray on wheat seedlings
[2] = system: Septoria tritici; test: Test J: wheat leaf blotch, preventive spray on wheat seedlings; type: in vivo
Description: A dash (-) indicates no test results.

[3] = system: Septoria nodorum; test: Test H: wheat glum blotch, preventive spray on wheat seedlings
Description: (the causal agent of wheat glum blotch) and incubated in a saturated atmosphere at 20° C. for 48 h, and then moved to a growth chamber at 22° C. for 5 days, after which disease ratings were made.

[4] = system: Sclerotinia sclerotiorum; test: Test C: cucumber white mold, preventive spray on cucumber seedlings; details: 200 ppm
[5] = system: Phytophthora infestans; test: whole plant or invertebrate; type: in vivo; details: 200 ppm
[6] = system: Puccinia recondita f. sp. tritici; test: Test K: wheat leaf rust, preventive spray on wheat seedlings
[7] = system: Pythium aphanidermatum; test: Test A: bluegrass pythium blight, preventive spray on bluegrass seedlings; details: 200 ppm
[8] = system: Colletotrichum orbiculare; test: Test B: cucumber Colletotrichum anthracnose, preventive spray on cucumber seedlings
[9] = system: fusarium graminearium; test: Test I: wheat head scab, preventive spray on wheat seedlings; details: 200 ppm
Description: (the causal agent of wheat head scab) and incubated in a saturated atmosphere at 20° C. for 72 h, and then moved to a growth chamber at 22° C. for 5 days, after which disease ratings were made.

[10] = system: Rhizoctonia oryzae; test: Test G: turf brown patch, preventive spray on creeping bent grass seedlings
Description: (the causal agent of turf brown patch) and incubated in a saturated atmosphere at 27° C. for 24 h, and then moved to a growth chamber at 27° C. for 5 days, after which disease ratings were made.

[11] = system: Botrytis cinerea; test: Test E: tomato botrytis, preventive spray on tomato seedlings
[12] = system: Plasmopara viticola; test: Test D: grape downy mildew, spray after inoculation of grape seedlings; type: in vivo; details: 200 ppm
Description: Upon removal, disease ratings were made. […] A dash (-) indicates no test results.

SMILES	Test L disease control rating ([1]; 40 ppm (*))	Test J disease control rating ([2]; 40 ppm (*))	Test H disease control rating ([3]; 40 ppm (*))	Test C disease control rating [4]	Test F disease control rating [5]	Test K disease control rating ([6]; 40 ppm (*))	Test A disease control rating [7]	Test B disease control rating ([8]; 40 ppm (*))	Test I disease control rating [9]	Test G disease control rating ([10]; 40 ppm (*))	Test E disease control rating ([11]; 40 ppm (*))	Test D disease control rating [12]	Test L disease control rating ([1]; 200 ppm)	Test J disease control rating ([2]; 200 ppm)	Test H disease control rating ([3]; 200 ppm)	Test K disease control rating ([6]; 200 ppm)	Test B disease control rating ([8]; 200 ppm)	Test G disease control rating ([10]; 200 ppm)	Test E disease control rating ([11]; 200 ppm)
COc1cc(OC)c(-c2c(Cl)nc(-n3cncn3)c(=O)n2CC(C)C)c(OC)c1 [compound 112]	0* %	0* %	0* %	0%	0%	0* %	0%	0* %	57%	0* %	0* %	0%							
CC(C)Cn1c(-c2c(F)cccc2C(F)(F)F)c(Cl)nc(-n2cncn2)c1=O [compound 113]	0* %	2* %	0* %	93%	0%	0* %	0%	0* %	98%	26* %	0* %	0%							
CC(C)Cn1c(-c2ccc3c(c2)OCO3)c(Cl)nc(-n2cncn2)c1=O [compound 114]	0* %	89* %	99* %	0%	0%	0* %	0%	0* %	0%	0* %	97* %	0%							
CC(C)Cn1c(-c2cc(Br)c3c(c2)OCO3)c(Cl)nc(-n2cncn2)c1=O [compound 115]	0* %	0* %	0* %	0%	0%	0* %	0%	0* %	0%	0* %	0* %	0%							
CC(C)Cn1c(-c2cc(Cl)cc(Cl)c2)c(Cl)nc(-n2cncn2)c1=O [compound 116]	0* %	5* %	0* %	0%	53%	0* %	0%	0* %	0%	0* %	0* %	0%							
CC(C)Cn1c(-c2ccc(C(F)(F)F)cc2F)c(Cl)nc(-n2cncn2)c1=O [compound 117]	0* %	2* %	0* %	0%	0%	0* %	0%	0* %	83%	0* %	0* %	0%							
CC(C)Cn1c(-c2ccc(Cl)cc2Cl)c(Cl)nc(-n2cncn2)c1=O [compound 118]				98%	16%		0%		81%			0%	0%	100%	92%	91%	96%	71%	99%
